# What was measured:
# [1] = tested on: taste bud filtrates and B subfractions [P2,3,4(B)]; test: Binding of 14C sugars to taste bud filtrates and B subfractions; design: species or system bovine; conditions: for 14C sugar binding / Relative enrichment of sugar binding compared to the initial filtrate: Bud; for 14C sugar binding: 30 min at 30° C
# Experimental: (§1) The following procedure was utilized in tastant evaluation according to the process of this invention: Protein concentrations were determined by the methods of Lowry et al., (1951) J. Biol. […] According to density, physical appearance as determined by using electron microscopic morphology enzymatic activity and chemical analysis, B subfractions from taste buds and epithelial tissues achieved the greatest membrane purification compared with other subfractions. Among the taste bud B subfractions, P4(B) was morphologically more homogeneous with respect to membranes than P3(B) whereas P2(B) was the least homogeneous of all. Epithelial tissue B subfractions contained mainly fibrous tissue and few differences were found in morphology, density, enzymatic activity or chemical analysis between P2(B) or P4(B) subfractions. Taste bud and epithelial tissue D subfractions contained relatively few membrane fragments compared to the large amount of other cellular organelles present and therefore were not included in these studies. […] Each filtrate and subfraction was washed three times with calcium free, 0.2 M Krebs-Ringer bicarbonate (KRB) pH 7.4, suspended in the same buffer in a final volume of 2 ml and frozen in liquid nitrogen. No detectable change in binding characteristics from suspensions of taste bud or epithelial tissue fractions was observed after storage at -80° for as long as two months. All binding studies were carried out in plastic micro test tubes in a constant temperature shaking bath. For these studies KRB, suspensions of the initial filtrates, subfractions and ^14 C labeled and/or unlabeled sugars were incubated in a final volume of 100 μl. After incubation the tubes were placed in an ice bath, centrifuged, the supernatant aspirated and 10 μl KRB layered on top of the pellet. The KRB was then aspirated, the top of the test tube cut off with a razor blade just above the bellet, placed into 10 ml Aquasol (New England Nuclear Corp., Boston, Mass.) and the radioactivity determined in a liquid scintillation spectrophotometer. Controls, without filtrates or subfractions, were also included. […] The tubes were then placed in an ice bath for 3 minutes, and then centrifuged at 15,000 rpm for 6 min.
# [2] = tested on: non-taste bud bearing epithelial tissue filtrates and B subfractions [P2,4(B)]; test: Binding of 14C sugars to non-taste bud bearing epithelial tissue filtrates and B subfractions (control); design: species or system bovine; conditions: Epi; for 14C sugar binding: 30 min at 30° C
# Experimental: as §1
# [3] = tested on: taste bud subfraction P4(B); test: Time and temperature effects on 14C sucrose binding; design: species or system bovine; conditions: 26 μM 14C sucrose
# Experimental: (§2) All binding studies were carried out in plastic micro test tubes in a constant temperature shaking bath. For these studies KRB, suspensions of the initial filtrates, subfractions and ^14 C labeled and/or unlabeled sugars were incubated in a final volume of 100 μl. After incubation the tubes were placed in an ice bath, centrifuged, the supernatant aspirated and 10 μl KRB layered on top of the pellet.
# (§3) The KRB was then aspirated, the top of the test tube cut off with a razor blade just above the bellet, placed into 10 ml Aquasol (New England Nuclear Corp., Boston, Mass.) and the radioactivity determined in a liquid scintillation spectrophotometer. Controls, without filtrates or subfractions, were also included. These controls represent background radioactivity composed mainly of ^14 C sugars bound to the walls of the plastic test tubes. This background radioactivity was always found to be less than 1% of the lowest level obtained in any study with added tissue fractions. Calculations of ^14 C sugar binding also included a correction for non-specific binding (i.e., ^14 C sugar binding not inhibited by an excess of the unlabeled homologous sugar, which occurred when tissue suspensions were used. This value (40%) was the mean calculated from the results of 56 duplicate experiments. […]
# [4] = tested on: taste bud P4(B) subfractions; test: Displacement of bound 14C sucrose by unlabeled sucrose; type: binding, bovine; conditions: after addition of unlabeled sucrose (0.01-1 mM), FIG. 5; 20 min
# Experimental: as §2, §3
# [5] = tested on: epithelial P4(B) subfractions; test: Displacement of bound 14C sucrose by unlabeled sucrose (epithelial control); type: binding, bovine
# Experimental: as §2, §3
# [6] = tested on: taste bud P4(B) subfractions; test: Specific binding: competition of 14C sugars or SSS with unlabeled homologous and heterologous sugars, Scatchard analysis; design: species or system bovine
# [7] = behavioral basis, cow; cited from earlier work
# [8] = cited from earlier work
# [9] = Filtrate, 14C glucose 200 μM, fructose 400 μM, sucrose 26 μM
# [10] = maximal concentration of unlabelled sugar, range of values
smiles,measurement,setting,value
"OC[C@H]1O[C@@](CO)(O[C@H]2O[C@H](CO)[C@@H](O)[C@H](O)[C@H]2O)[C@@H](O)[C@@H]1O [Sucrose, sucrose]",14C sugar binding,[1]; [9],36000 cpm/mg protein
same,Relative enrichment of sugar binding compared to the initial filtrate,[1]; P2(B),3.1
same,14C sugar binding,[1]; P2(B),113000 cpm/mg protein
same,Relative enrichment of sugar binding compared to the initial filtrate,[1]; P3(B),7.0
same,14C sugar binding,[1]; P3(B),255000 cpm/mg protein
same,Relative enrichment of sugar binding compared to the initial filtrate,[1]; P4(B),23.8
same,14C sugar binding,[1]; P4(B),868000 cpm/mg protein
same,increase in sugar binding compared to the initial filtrate,[1]; taste bud subfraction P3(B),7 fold
same,increase in sugar binding compared to the initial filtrate,[1]; taste bud subfraction P4(B),24 fold
same,14C sugar binding,[2]; [9],33000 cpm/mg protein
same,Relative enrichment of sugar binding compared to the initial filtrate,[2]; P2(B),1.1
same,14C sugar binding,[2]; P2(B),37000 cpm/mg protein
same,Relative enrichment of sugar binding compared to the initial filtrate,[2]; P4(B),0.5
same,14C sugar binding,[2]; P4(B),18000 cpm/mg protein
same,increase of sucrose binding activity following increase in incubation temperature from 0° C. to 30° C.,[3]; FIG. 3,four
same,time to plateau of 14C sucrose binding,[3]; at 30° C.,about 25 min
same,maximum displacement of the 14C sucrose initially bound,[4],about 80%
same,reversal of 14C sucrose binding by excess unlabeled sucrose,[5],could not be reversed
same,competition of unlabeled sugar with fructose binding,"[6]; FIG. 8, in words",competed with both glucose and fructose
same,competition of unlabeled sugar with glucose binding,"[6]; FIG. 8, in words",competed with both glucose and fructose
same,Kd,"[6]; Scatchard plot, single class of sites, mean ± 1 SEM, read-out: Kd (dissociation constant)",1100 ± 400 µM
same,Inhibition (%) of 14C Fructose binding by unlabelled sugar,[6]; [10],50-60%
same,Inhibition (%) of 14C Glucose binding by unlabelled sugar,[6]; [10],60-65%
same,Inhibition (%) of 14C Sucrose binding by unlabelled sugar,[6]; [10],70-80%
same,Inhibition (%) of 14C Sucrose binding by unlabelled sugar,"[6]; maximal concentration of unlabelled sugar, range of values, listed as sucrose",about 80%
same,Relative Binding Inhibition,"[6]; section SUCROSE (as the 14C sugar per footnote) with each unlabelled sugar, homologous set at 100",100%
same,q (concentration of sugar or SSS bound per mg subfraction protein),[6]; single class of sites,51 ± 8 mM/mg protein
same,specific binding (competition of 14C sugar or SSS with homologous unlabeled sugar or SSS),"[6]; taste bud P4(B), FIG. 7",occurred
same,bovine discrimination thresholds,[7],0.03 M
same,Recognition thresholds in man,[8]; man,0.01 to 0.03 M
same,detection thresholds in normal man,[8]; reported as low as,≥ 5 mM

# From US4146501A, “Process for isolating and purifying taste bud receptors for screening and evaluating tastants” (priority 1976, dated 1979)
